Consider 34 compounds from ChEMBL document CHEMBL3769394, “The Importance of Being Me: Magic Methyls, Methyltransferase Inhibitors, and the Discovery of Tazemetostat” (J Med Chem, 2016).

The source made the active and inactive calls. The calls are words filed in the database; no cut-off is given here.

Series [1] in a line: Aqueous solubility of the compound at pH 7. In kind it is physicochemical.
Series [2] addresses T1, Histone-lysine N-methyltransferase EZH2 (Homo sapiens, UniProt Q15910). The experiment in a line: Inhibition of methyltransferase activity of human EZH2 using chicken oligonucleosomes as substrate by pull down assay.
Target sequence in this assay (Q15910 whole entry): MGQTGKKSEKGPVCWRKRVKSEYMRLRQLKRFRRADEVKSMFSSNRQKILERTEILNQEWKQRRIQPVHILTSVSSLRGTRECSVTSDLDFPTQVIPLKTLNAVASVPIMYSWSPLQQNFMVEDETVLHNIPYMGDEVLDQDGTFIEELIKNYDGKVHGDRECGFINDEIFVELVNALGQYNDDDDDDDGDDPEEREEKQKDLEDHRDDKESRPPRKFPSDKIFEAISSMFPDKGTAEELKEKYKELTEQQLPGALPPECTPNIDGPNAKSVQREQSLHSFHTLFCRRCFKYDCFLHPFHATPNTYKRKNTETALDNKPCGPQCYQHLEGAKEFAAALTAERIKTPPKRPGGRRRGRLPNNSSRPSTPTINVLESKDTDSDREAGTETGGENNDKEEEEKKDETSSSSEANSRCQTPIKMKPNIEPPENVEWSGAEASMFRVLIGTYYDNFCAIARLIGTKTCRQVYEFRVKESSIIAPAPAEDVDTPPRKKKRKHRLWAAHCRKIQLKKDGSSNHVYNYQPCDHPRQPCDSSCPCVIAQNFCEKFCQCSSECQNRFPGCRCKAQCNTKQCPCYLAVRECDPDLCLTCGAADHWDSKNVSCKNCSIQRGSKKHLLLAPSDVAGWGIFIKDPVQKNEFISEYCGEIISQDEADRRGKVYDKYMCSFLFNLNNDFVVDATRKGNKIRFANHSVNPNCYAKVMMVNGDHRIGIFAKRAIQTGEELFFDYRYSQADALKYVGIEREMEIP
A short description of series [3]: Clearance in mouse at 2 mg/kg, iv and 10 mg/kg, po by LC-MS/MS analysis. In kind it is ADME, organism-based. The note with it: in vivo.
Series [4] is described as follows: AUC in mouse at 2 mg/kg, iv and 10 mg/kg, po by LC-MS/MS analysis. In kind it is ADME, organism-based. The conditions noted are these: in vivo.
Series [5] in a line: Volume of distribution at steady state in mouse at 2 mg/kg, iv and 10 mg/kg, po by LC-MS/MS analysis. In kind it is ADME, organism-based. The conditions noted are these: in vivo, read-out: Vdss.
Series [6] is described as follows: Oral bioavailability in mouse at 10 mg/kg by LC-MS/MS analysis. The class given is ADME, organism-based. The note with it: in vivo.
Series [7] deals with T1, Histone-lysine N-methyltransferase EZH2. The series is described as follows: Inhibition of methyltransferase activity of human EZH2 using chicken oligonucleosomes as substrate up to 10 uM by pull down assay.
Target sequence in this assay (Q15910 whole entry, looked up): as the sequence (Q15910 whole entry) above

As a reminder, the solubility is how much of the substance goes into solution per volume. As usually defined, the IC50 is the midpoint of a concentration-inhibition curve. As to `Cc1cc(C)c(CNC(=O)c2cc(Br)nc3c2cnn3C(C)C)c(=O)[nH]1`, in series [1] (buffer), the solubility entry was “soluble”. Moreover, in series [2], the midpoint of inhibition, the IC50, lay at 900 nM.

In series [2], `CCn1ncc2c(C(=O)NCc3c(C)cc(C)[nH]c3=O)cc(C3=CC(C)(C)NC(C)(C)C3)nc21` displayed an IC50 of 5000 nM.

As a reminder, the AUC is the area under the concentration-time curve, a measure of exposure. A low value points to low exposure. For orientation: bioavailability means dose-corrected exposure relative to a reference, in per cent. High values mean good availability, low ones poor availability. In series [3], `CCN(c1cc(-c2ccc(CN3CCOCC3)cc2)cc(C(=O)NCc2c(C)cc(C)[nH]c2=O)c1C)C1CCOCC1` [TAZEMETOSTAT] registered a clearance of 13 mL/min/kg. In series [4], this compound had an AUC of 2500 ng·h/mL. Besides, the Vd in series [5] is 1 L/kg. For the same compound, the bioavailability in series [6] is 55%.

For the compound `CCN(c1ccc(Cl)c(C(=O)N(C)Cc2c(C)cc(C)[nH]c2=O)c1C)C1CCOCC1`, the IC50 in series [2] worked out at 200 nM.

Take `Cc1cc(C)c(CNC(=O)c2cc(Br)cc(N(C)C3CCCC3)c2C)c(=O)[nH]1`: the clearance in series [3] was determined as 18 mL/min/kg. The AUC in series [4] turned out to be 46 ng·h/mL. The Vd in series [5] is 0.97 L/kg. The bioavailability in series [6] was found to be 2%.

In the case of `Cc1cc(C)c(CNC(=O)c2ccc3cnn(C4CCCC4)c3c2)c(=O)[nH]1`, in series [2], the IC50 was more than 50000 nM.

Compound `Cc1cc(C)c(CNC(=O)c2ccc3cnn(C4CCCC4)c3c2C)c(=O)[nH]1` showed an IC50 in series [2] of 6000 nM. That is a single-digit micromolar value.

`Cc1cc(C)c(CNC(=O)c2cc(Br)nc3c2cnn3C2CCOCC2)c(=O)[nH]1` had an IC50 in series [2] of 700 nM.

As for `Cc1cc(C)c(CNC(=O)c2cccc3c2nnn3C(C)C)c(=O)[nH]1`, the IC50 in series [2] is more than 50000 nM.

As to `Cc1cc(C)c(CNC(=O)c2cc(Br)cc(N(C)C3CCOCC3)c2C)c(=O)[nH]1`, the clearance in series [3] came out at 90 mL/min/kg. Besides, the AUC in series [4] is 350 ng·h/mL. In addition, the Vd in series [5] is 2.7 L/kg. Moreover, the bioavailability in series [6] was found to be 18%.

In turn, `Cc1cc(C)c(CNC(=O)c2cc(C3=CC(C)(C)NC(C)(C)C3)nc3c2cnn3C)c(=O)[nH]1` came in with an IC50 in series [2] of 39000 nM. This counts as double-digit micromolar.

`Cc1cc(C)c(CNC(=O)c2cc(Br)nc3c2cnn3C2CCNCC2)c(=O)[nH]1` yielded an IC50 in series [2] of 2200 nM.

As for `Cc1cc(C)c(CNC(=O)c2cc(-c3ccc(CN4CCOCC4)cc3)cc3c2cnn3C2CCCC2)c(=O)[nH]1`, the clearance in series [3] was determined as 11 mL/min/kg. This compound yielded an AUC in series [4] of 2900 ng·h/mL. For the same compound, the Vd in series [5] is 0.49 L/kg. The same compound gave a bioavailability in series [6] of 47%.

As to `Cc1cc(C)c(CNC(=O)c2ccnc3c2cnn3C(C)C)c(=O)[nH]1`, the solubility entry in series [1] (buffer) is given as “soluble”. This compound also came in with an IC50 in series [2] of 3100 nM.

The compound `Cc1cc(C)c(CNC(=O)c2cccc3c2ccn3C(C)C)c(=O)[nH]1` returned an IC50 in series [2] of 3100 nM. This counts as single-digit micromolar.

`Cc1cc(C)c(CNC(=O)c2cccc3c2ncn3C(C)C)c(=O)[nH]1`: in series [2], the IC50 was more than 50000 nM.

The compound `Cc1cc(C)c(CNC(=O)c2cc(Br)nc3c2cnn3C2CCN(C(=O)C(C)(C)C)CC2)c(=O)[nH]1` yielded an IC50 in series [2] of 50 nM.

As for `Cc1cc(C)c(CNC(=O)c2cccc3c2cnn3C(C)C)c(=O)[nH]1`, in series [2], the IC50 turned out to be 1100 nM. Compared with the last compound, the IC50 is about 22-fold higher.

`Cc1cc(C)c(CNC(=O)c2cc(-c3ccc(CN4CCOCC4)cc3)nc3c2cnn3C(C)C)c(=O)[nH]1`: the solubility result in series [1] (buffer) was “soluble”. Moreover, the clearance in series [3] stood at 35 mL/min/kg. In series [4], this compound registered an AUC of 950 ng·h/mL. In series [5], the Vd was determined as 1.5 L/kg. Further, in series [6], the bioavailability worked out at 41%.

With `Cc1cc(C)c(CNC(=O)c2ccc3c(cnn3C(C)C)c2)c(=O)[nH]1`, the IC50 in series [2] stood at 22000 nM.

`CCN(c1cc(Cl)cc(C(=O)NCc2c(C)cc(C)[nH]c2=O)c1C)C1CCOCC1` returned a clearance in series [3] of 49 mL/min/kg. Moreover, the AUC in series [4] turned out to be 680 ng·h/mL. In addition, in series [5], the Vd was determined as 0.45 L/kg. The bioavailability in series [6] was 1.6%.

In series [2], `Cc1cc(C)c(CNC(=O)c2cc(Br)nc3c2cnn3C2CCN(C(=O)N(C)C)CC2)c(=O)[nH]1` returned an IC50 of 50 nM. This lies in the double-digit nanomolar range.

Regarding `CCN(c1cc(Cl)cc(C(=O)NCc2c(C)cc(C)[nH]c2=O)c1)C1CCOCC1`, in series [2], inhibition was half-maximal at 14000 nM (IC50). This IC50 lies about 280-fold higher than the previous one.

As to `Cc1cc(C)c(CNC(=O)c2cc(N3CCNCC3)nc3c2cnn3C(C)C)c(=O)[nH]1`, the solubility result in series [1] (buffer) was “soluble”. The IC50 in series [2] was 1600 nM.

With `Cc1cc(C)c(CNC(=O)c2ccc3cnn(C(C)C)c3c2)c(=O)[nH]1`, in series [2], the IC50 is more than 50000 nM.

Consider `Cc1cc(C)c(CNC(=O)c2cc(-c3ccc(CN4CCOCC4)cc3)cc(N(C)C3CCCC3)c2C)c(=O)[nH]1`, for which, in series [3], the clearance stood at 16 mL/min/kg. The compound also had an AUC in series [4] of 2500 ng·h/mL. The Vd in series [5] is 0.66 L/kg. Further, the bioavailability in series [6] amounted to 24%.

In the case of `Cc1cc(C)c(CNC(=O)c2cc(-c3ccc4c(c3)OCCO4)nc3c2cnn3C(C)C)c(=O)[nH]1`, the clearance in series [3] came to 24 mL/min/kg. Further, the IC50 in series [2] is 500 nM. Besides, the AUC in series [4] turned out to be 700 ng·h/mL. In addition, in series [5], the Vd is 1.3 L/kg. Also, the bioavailability in series [6] was 0.5%.

For `CCN(c1cc(Cl)cc(C(=O)NCc2c(C)cc(C)nc2OC)c1C)C1CCOCC1`, the inhibition result in series [7] is “inactive”. In addition, in series [2], the IC50 is more than 10000 nM.

`Cc1cc(C)c(CNC(=O)c2cc(C(C)C)nc3c2cnn3C(C)C)c(=O)[nH]1`: the solubility result in series [1] (buffer) is recorded as “soluble”. The same compound registered an IC50 in series [2] of 2300 nM.

Regarding `Cc1cc(C)c(CNC(=O)c2cc(C)n(C3CCCCC3)c2C)c(=O)[nH]1`, the solubility in series [1] (aqueous, read-out: solubility) is less than 10 µM. In series [2], this compound registered an IC50 of 3400 nM.

With `Cc1cc(C)c(CNC(=O)c2cc(C3=CC(C)(C)NC(C)(C)C3)nc3c2cnn3C(C)C)c(=O)[nH]1`, the solubility result in series [1] (buffer) is on record as “soluble”. The compound further returned an IC50 in series [2] of 300 nM.

In series [2], `Cc1cc(C)c(CNC(=O)c2cc(Br)nc3c2cnn3C2CCN(C(=O)OC(C)(C)C)CC2)c(=O)[nH]1` displayed a half-maximal inhibitory concentration (IC50) of 200 nM.

`Cc1cc(C)c(CNC(=O)c2cc(-c3ccc(N4CCNCC4)nc3)nc3c2cnn3C(C)C)c(=O)[nH]1`: the solubility entry in series [1] (buffer) is on record as “soluble”. This compound returned an IC50 in series [2] of 200 nM.

Consider `COc1cc(C(=O)NCc2c(C)cc(C)[nH]c2=O)c2cnn(C(C)C)c2n1`, for which, in series [1] (buffer), the solubility result is “soluble”. For the same compound, it took 2400 nM to reach half-maximal inhibition in series [2] (IC50).
